According to US9834542B2, “LXR modulators” (BRISTOL-MYERS SQUIBB COMPANY, priority 2013, dated 2017):

Biological target: T1, LXRβ (Homo sapiens, UniProt P55055)
T1 construct: Co-transfection expression plasmids, comprising full-length LXRα (pCMX-h LXRα[…] or LXRβ (pCMX-hLXRβ)); expressed in transfected cells; host or cells: CV-1 African Green Monkey Kidney Cells
T1 sequence (P55055 1-460): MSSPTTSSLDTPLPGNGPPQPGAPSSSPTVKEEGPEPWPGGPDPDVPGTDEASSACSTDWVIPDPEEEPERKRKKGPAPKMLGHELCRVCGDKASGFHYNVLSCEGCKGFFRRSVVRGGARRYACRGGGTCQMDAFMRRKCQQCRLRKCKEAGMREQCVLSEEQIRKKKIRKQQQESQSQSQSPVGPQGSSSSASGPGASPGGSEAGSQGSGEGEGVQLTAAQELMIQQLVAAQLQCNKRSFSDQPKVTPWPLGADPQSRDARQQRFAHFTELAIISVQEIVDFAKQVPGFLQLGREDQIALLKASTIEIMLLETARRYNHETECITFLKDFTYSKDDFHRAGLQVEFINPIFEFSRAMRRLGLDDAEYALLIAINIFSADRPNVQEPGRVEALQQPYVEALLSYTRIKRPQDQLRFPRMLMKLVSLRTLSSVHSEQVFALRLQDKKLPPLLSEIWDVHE
T1 sequence (P19793 1-462 partner): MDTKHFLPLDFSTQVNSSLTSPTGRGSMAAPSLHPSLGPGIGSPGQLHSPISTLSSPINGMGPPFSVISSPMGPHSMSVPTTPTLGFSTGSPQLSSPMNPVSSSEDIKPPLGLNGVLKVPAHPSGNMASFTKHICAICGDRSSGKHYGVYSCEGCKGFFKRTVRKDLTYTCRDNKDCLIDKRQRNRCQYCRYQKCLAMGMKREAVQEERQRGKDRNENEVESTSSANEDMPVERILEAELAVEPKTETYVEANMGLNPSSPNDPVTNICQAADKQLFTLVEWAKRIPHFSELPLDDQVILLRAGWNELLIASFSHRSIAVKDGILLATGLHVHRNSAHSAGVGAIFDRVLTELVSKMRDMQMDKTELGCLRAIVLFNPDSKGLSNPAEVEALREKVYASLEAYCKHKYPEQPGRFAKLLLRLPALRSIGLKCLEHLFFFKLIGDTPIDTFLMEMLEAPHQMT
Test: Co-transfection assay (LXRE luciferase reporter), LXRβ
Assay type: cell-based
Details: for EC50: CV-1 cells transfected with pCMX-hLXRβ and LXREx1-Tk-Luciferase, 20 hours incubation; for Emax: LXRβ co-transfection, relative to high control 1-(2,4-difluorobenzyl)-2-oxo-6-(4-phenoxyphenyl)-4-(trifluoromethyl)-1,2-dihydropyridine-3-carbonitrile, read-out: % Efficacy
Procedure, shortened: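 Cell-based LXRβ agonism measured as LXRE-luciferase induction in transiently transfected CV-1 cells after 20 h treatment. Potency is the curve-fit EC50; efficacy is expressed as percent of a full-agonist control's maximal response.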

| Structure (SMILES) | EC50 | Emax |
| --- | --- | --- |
| Cc1nc(-c2cc(-c3ccc(CO)c(S(C)(=O)=O)c3)ccc2-n2cc(C(F)(F)F)nc2C)c(-c2ccc(F)c(F)c2)o1 [Example 512, (3′-(5-(3,4-difluorophenyl)-2-methyloxazol-4-yl)-4′-(2-methyl-4-(trifluoromethyl)-1H-imidazol-1-yl)-3-(methylsulfonyl)biphenyl-4-yl)methanol] | 136 nM | 71% |
| Cc1nc(-c2cc(-c3cccc(S(C)(=O)=O)c3)ccc2-n2cc(C(F)(F)F)nc2C)c(-c2ccc(C(F)(F)F)cc2)o1 [Example 513, 2-methyl-4-(4-(2-methyl-4-(trifluoromethyl)-1H-imidazol-1-yl)-3′-(methylsulfonyl)biphenyl-3-yl)-5-(4-(trifluoromethyl)phenyl)oxazole] | 137 nM | 64% |
| CCC(F)(F)c1cn(-c2ccc(-c3cccc(S(C)(=O)=O)c3)cc2-c2nc(C)oc2-c2ccc(OC(F)(F)F)cc2)c(C)n1 [Example 517, 4-(4-(4-(1,1-difluoropropyl)-2-methyl-1H-imidazol-1-yl)-3′-(methylsulfonyl)-[1,1′-biphenyl]-3-yl)-2-methyl-5-(4-(trifluoromethoxy)phenyl)oxazole] | 146 nM | 47% |
| CCC(F)(F)c1cn(-c2ccc(-c3cc(F)c(CO)c(S(C)(=O)=O)c3)cc2-c2nc(C)oc2-c2ccc(OC(F)(F)F)cc2)c(C)n1 [Example 518, (4′-(4-(1,1-difluoropropyl)-2-methyl-1H-imidazol-1-yl)-3-fluoro-3′-(2-methyl-5-(4-(trifluoromethoxy)phenyl)oxazol-4-yl)-5-(methylsulfonyl)-[1,1′-biphenyl]-4-yl)methanol] | 107 nM | 49% |
| CCc1nc(-c2cc(-c3ccc(CO)c(S(C)(=O)=O)c3)ccc2-n2cc(C(F)(F)F)nc2C)c(-c2ccc(OC(F)(F)F)cc2)o1 [Example 519, (3′-(2-ethyl-5-(4-(trifluoromethoxy)phenyl)oxazol-4-yl)-4′-(2-methyl-4-(trifluoromethyl)-1H-imidazol-1-yl)-3-(methylsulfonyl)-[1,1′-biphenyl]-4-yl)methanol] | 140 nM | 100% |
| CCCc1nc(-c2cc(-c3cccc(S(C)(=O)=O)c3)ccc2-n2cc(C(F)(F)F)nc2C)c(-c2ccc(OC(F)(F)F)cc2)o1 [Example 520, 4-(4-(2-methyl-4-(trifluoromethyl)-1H-imidazol-1-yl)-3′-(methylsulfonyl)-[1,1′-biphenyl]-3-yl)-2-propyl-5-(4-(trifluoromethoxy)phenyl)oxazole] | 22 nM | 86% |
| Cc1nc(C(F)(F)F)cn1-c1ccc(-c2ccc(CO)c(S(C)(=O)=O)c2)cc1-c1nc(C(C)C)oc1-c1ccc(OC(F)(F)F)cc1 [Example 521, (3′-(2-isopropyl-5-(4-(trifluoromethoxy)phenyl)oxazol-4-yl)-4′-(2-methyl-4-(trifluoromethyl)-1H-imidazol-1-yl)-3-(methylsulfonyl)-[1,1′-biphenyl]-4-yl)methanol] | 21 nM | 71% |
| Cc1nc(-c2cc(-c3ccc(CO)c(S(C)(=O)=O)c3)ccc2-n2cc(C(F)(F)F)nc2C)c(-c2ccc(OC(F)(F)F)cc2)o1 [Example 522, (4′-(2-methyl-4-(trifluoromethyl)-1H-imidazol-1-yl)-3′-(2-methyl-5-(4-(trifluoromethoxy)phenyl)oxazol-4-yl)-3-(methylsulfonyl)-[1,1′-biphenyl]4-yl)methanol] | 42 nM | 86% |
| Cc1nc(-c2cc(-c3ccc(CCO)c(S(C)(=O)=O)c3)ccc2-n2cc(C(F)(F)F)nc2C)c(-c2ccc(OC(F)(F)F)cc2)o1 [Example 523, 2-(4′-(2-methyl-4-(trifluoromethyl)-1H-imidazol-1-yl)-3′-(2-methyl-5-(4-(trifluoromethoxy)phenyl)oxazol-4-yl)-3-(methylsulfonyl)-[1,1′-biphenyl]-4-yl)ethanol] | 67 nM | 102% |
| Cc1nc(C(F)(F)F)cn1-c1ccc(-c2cccc(S(C)(=O)=O)c2)cc1-c1nc(CCO)oc1-c1ccc(OC(F)(F)F)cc1 [Example 524, 2-(4-(4-(2-methyl-4-(trifluoromethyl)-1H-imidazol-1-yl)-3′-(methylsulfonyl)-[1,1′-biphenyl]-3-yl)-5-(4-(trifluoromethoxy)phenyl)oxazol-2-yl)ethanol] | 514 nM | 66% |

The next lines start with the values.

| EC50 | Emax | Structure (SMILES) |
| --- | --- | --- |
| 650 nM | 67% | Cc1nc(C(F)(F)F)cn1-c1ccc(-c2cc(F)c(CO)c(S(C)(=O)=O)c2)cc1-c1nc(CCO)oc1-c1ccc(OC(F)(F)F)cc1 [Example 525, 2-(4-(3′-fluoro-4′-(hydroxymethyl)-4-(2-methyl-4-(trifluoromethyl)-1H-imidazol-1-yl)-5′-(methylsulfonyl)-[1,1′-biphenyl]-3-yl)-5-(4-(trifluoromethoxy)phenyl)oxazol-2-yl)ethanol] |
| 1770 nM | 74% | Cc1nc(C(F)(F)F)cn1-c1ccc(-c2ccc(CO)c(S(C)(=O)=O)c2)cc1-c1nc(CCO)oc1-c1ccc(OC(F)(F)F)cc1 [Example 526] |
| 107 nM | 54% | COCCc1nc(-c2cc(-c3cc(F)c(CO)c(S(C)(=O)=O)c3)ccc2-n2cc(C(F)(F)F)nc2C)c(-c2ccc(OC(F)(F)F)cc2)o1 [Example 527, (3-fluoro-3′-(2-(2-methoxyethyl)-5-(4-(trifluoromethoxy)phenyl)oxazol-4-yl)-4′-(2-methyl-4-(trifluoromethyl)-1H-imidazol-1-yl)-5-(meththsulfonyl)-[1,1′-biphenyl]-4-yl)methanol] |
| 133 nM | 20% | Cc1nc(C(F)(F)F)cn1-c1ccc(-c2cc(F)c(CO)c(S(C)(=O)=O)c2)cc1-c1nc(C(C)(C)CO)oc1-c1ccc(OC(F)(F)F)cc1 [Example 528, 2-(4-(3′-fluoro-4′-(hydroxymethyl)-4-(2-methyl-4-(trifluoromethyl)-1H-imidazol-1-yl)-5′-(meththsulfonyl)-[1,1′-biphenyl]-3-yl)-5-(4-(trifluoromethoxy)phenyl)oxazol-2-yl)-2-methylpropan-1-ol] |
| 54 nM | 101% | Cc1nc(-c2cc(-c3cc(F)c(CCO)c(S(C)(=O)=O)c3)ccc2-n2cc(C(F)(F)F)nc2C)c(-c2ccc(OC(F)(F)F)cc2)o1 [Example 529, 2-(3-fluoro-4′-(2-methyl-4-(trifluoromethyl)-1H-imidazol-1-yl)-3′-(2-methyl-5-(4-(trifluoromethoxy)phenyl)oxazol-4-yl)-5-(methylsulfonyl)-[1,1′-biphenyl]-4-yl)ethanol] |
| 739 nM | 71% | Cc1nc(C(F)(F)F)cn1-c1ccc(-c2cc(F)c(CO)c(S(C)(=O)=O)c2)cc1-c1nc(CCO)oc1-c1ccc2c(c1)OC(F)(F)O2 [Example 530, 2-(5-(2,2-difluorobenzo[d][1,3]dioxol-5-yl)-4-(3′-fluoro-4′-(hydroxymethyl)-4-(2-methyl-4-(trifluoromethyl)-1H-imidazol-1-yl)-5′-(methylsulfonyl)-[1,1′-biphenyl]-3-yl)oxazol-2-yl)ethanol] |
| 422 nM | 74% | Cc1nc(C(F)(F)F)cn1-c1ccc(-c2cccc(S(C)(=O)=O)c2)cc1-c1nc(CCO)oc1-c1ccc2c(c1)OC(F)(F)O2 [Example 531] |
| 16 nM | 89% | C=Cc1nc(-c2cc(-c3cccc(S(C)(=O)=O)c3)ccc2-n2cc(C(F)(F)F)nc2C)c(-c2ccc3c(c2)OC(F)(F)O3)o1 [Example 532] |
| 233 nM | 73% | Cc1nc(-c2cc(-c3cccc([S+](C)[O-])c3)ccc2-n2cc(C(F)(F)F)nc2C)c(-c2ccc(OC(F)(F)F)cc2)o1 (stereo not shown) [Example 533, 2-methyl-4-(4-(2-methyl-4-(trifluoromethyl)-1H-imidazol-1-yl)-3′-(methylsulfinyl)-[1,1′-biphenyl]-3-yl)-5-(4-(trifluoromethoxy)phenyl)oxazole] |
| 197 nM | 55% | Cc1nc(C(F)(F)F)cn1-c1ccc(-c2cc(F)c(CO)c(S(C)(=O)=O)c2)cc1-c1nc(CC(C)O)oc1-c1ccc(OC(F)(F)F)cc1 (stereo not shown) [Example 534, 1-(4-(3′-fluoro-4′-(hydroxymethyl)-4-(2-methyl-4-(trifluoromethyl)-1H-imidazol-1-yl)-5′-(methylsulfonyl)-[1,1′-biphenyl]-3-yl)-5-(4-(trifluoromethoxy)phenyl)oxazol-2-yl)propan-2-ol] |
